# Assay results from PubChem BioAssay AID1963831 (Molecular Pharmacology Branch, DTP, NCI, 2024).
# Test system: 889142-216-R-J1-PDC complex spheroid viability
# Assay: Anticancer human tumor 889142-216-R-J1-PDC patient-derived bladder carcinoma cell line growth inhibition [POLQ]
# Settings: for IC50: curve of first compound; for viability, T/C: stronger effect = lower value
# Outline: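 Three-cell-type spheroids modelling solid tumor plus stroma served as the readout system; POL inhibitors were tested individually and in combination, concentration ranges set by clinical Cmax where known.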
# [1] = second compound 0.0316 µM, first compound 0.0316 µM
# [2] = second compound 0.0316 µM, first compound 0.1 µM
# [3] = second compound 0.1 µM, first compound 0.0316 µM
# [4] = second compound 0.1 µM, first compound 0.1 µM
# [5] = second compound 0.316 µM, first compound 0.0316 µM
# [6] = second compound 0.316 µM, first compound 0.1 µM
# [7] = second compound 1 µM, first compound 0.0316 µM
# [8] = second compound 1 µM, first compound 0.1 µM
# [9] = second compound 3.16 µM, first compound 0.0316 µM
# [10] = second compound 3.16 µM, first compound 0.1 µM
# [11] = second compound 10 µM, first compound 0.0316 µM
# [12] = second compound 10 µM, first compound 0.1 µM
# [13] = second compound 0.0316 µM, first compound 0.316 µM
# [14] = second compound 0.0316 µM, first compound 1 µM
# [15] = second compound 0.0316 µM, first compound 3.16 µM
# [16] = second compound 0.0316 µM, first compound 10 µM
# [17] = second compound 0.1 µM, first compound 0.316 µM
# [18] = second compound 0.1 µM, first compound 1 µM
# [19] = second compound 0.1 µM, first compound 3.16 µM
# [20] = second compound 0.1 µM, first compound 10 µM
# [21] = second compound 0.316 µM, first compound 0.316 µM
# [22] = second compound 0.316 µM, first compound 1 µM
# [23] = second compound 0.316 µM, first compound 3.16 µM
# [24] = second compound 0.316 µM, first compound 10 µM
# [25] = second compound 1 µM, first compound 0.316 µM
# [26] = second compound 1 µM, first compound 1 µM
# [27] = second compound 1 µM, first compound 3.16 µM
# [28] = second compound 1 µM, first compound 10 µM
# [29] = second compound 3.16 µM, first compound 0.316 µM
# [30] = second compound 3.16 µM, first compound 1 µM
# [31] = second compound 3.16 µM, first compound 3.16 µM
# [32] = second compound 3.16 µM, first compound 10 µM
# [33] = second compound 10 µM, first compound 0.316 µM
# [34] = second compound 10 µM, first compound 1 µM
# [35] = second compound 10 µM, first compound 3.16 µM
# [36] = second compound 10 µM, first compound 10 µM
# 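Also: spheroids exposed to compounds for seven days.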
# 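For viability, T/C in this document: 100% = DMSO vehicle control viability.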
smiles,measurement,setting,value
CC[C@@]1(O)C(=O)OCc2c1cc1n(c2=O)Cc2cc3c(CN(C)C)c(O)ccc3nc2-1 + Nc1ccc(C#CCN(C(=O)Cc2ncc(C(F)(F)F)cc2C(F)(F)F)c2ccc(F)cc2)nn1,IC50,second compound 0.0316 µM,> 0.1 µM
same,IC50,second compound 0.1 µM,> 0.1 µM
same,IC50,second compound 0.316 µM,> 0.1 µM
same,IC50,second compound 1 µM,> 0.1 µM
same,IC50,second compound 3.16 µM,> 0.1 µM
same,IC50,second compound 10 µM,> 0.1 µM
same,"viability, T/C","second compound 0.0316 µM, first compound 0.000316 µM",101%
same,"viability, T/C","second compound 0.0316 µM, first compound 0.001 µM",78.3%
same,"viability, T/C","second compound 0.0316 µM, first compound 0.00316 µM",95.8%
same,"viability, T/C","second compound 0.0316 µM, first compound 0.01 µM",87.9%
same,"viability, T/C",[1],67.5%
same,"viability, T/C",[2],56.1%
same,"viability, T/C","second compound 0.1 µM, first compound 0.000316 µM",99.4%
same,"viability, T/C","second compound 0.1 µM, first compound 0.001 µM",89.4%
same,"viability, T/C","second compound 0.1 µM, first compound 0.00316 µM",91.3%
same,"viability, T/C","second compound 0.1 µM, first compound 0.01 µM",75.2%
same,"viability, T/C",[3],59.7%
same,"viability, T/C",[4],52.4%
same,"viability, T/C","second compound 0.316 µM, first compound 0.000316 µM",86.8%
same,"viability, T/C","second compound 0.316 µM, first compound 0.001 µM",77.6%
same,"viability, T/C","second compound 0.316 µM, first compound 0.00316 µM",116%
same,"viability, T/C","second compound 0.316 µM, first compound 0.01 µM",94.8%
same,"viability, T/C",[5],54.7%
same,"viability, T/C",[6],59.2%
same,"viability, T/C","second compound 1 µM, first compound 0.000316 µM",86.9%
same,"viability, T/C","second compound 1 µM, first compound 0.001 µM",67.1%
same,"viability, T/C","second compound 1 µM, first compound 0.00316 µM",109%
same,"viability, T/C","second compound 1 µM, first compound 0.01 µM",70.7%
same,"viability, T/C",[7],63.1%
same,"viability, T/C",[8],55.9%
same,"viability, T/C","second compound 3.16 µM, first compound 0.000316 µM",87.1%
same,"viability, T/C","second compound 3.16 µM, first compound 0.001 µM",74.4%
same,"viability, T/C","second compound 3.16 µM, first compound 0.00316 µM",109%
same,"viability, T/C","second compound 3.16 µM, first compound 0.01 µM",89.4%
same,"viability, T/C",[9],57.4%
same,"viability, T/C",[10],52.6%
same,"viability, T/C","second compound 10 µM, first compound 0.000316 µM",121%
same,"viability, T/C","second compound 10 µM, first compound 0.001 µM",135%
same,"viability, T/C","second compound 10 µM, first compound 0.00316 µM",86.2%
same,"viability, T/C","second compound 10 µM, first compound 0.01 µM",72.6%
same,"viability, T/C",[11],70.5%
same,"viability, T/C",[12],53.4%
COc1cc2cc(C(=O)CCC(=O)O)sc2cc1OC + COC1C(OC(N)=O)C(O)C(Oc2ccc3c(O)c(NC(=O)c4ccc(O)c(CC=C(C)C)c4)c(=O)oc3c2C)OC1(C)C,IC50,second compound 0.0316 µM,> 10 µM
same,IC50,second compound 0.1 µM,> 10 µM
same,IC50,second compound 0.316 µM,> 10 µM
same,IC50,second compound 1 µM,> 10 µM
same,IC50,second compound 3.16 µM,> 10 µM
same,IC50,second compound 10 µM,> 10 µM
same,"viability, T/C",[1],95.1%
same,"viability, T/C",[2],93%
same,"viability, T/C",[13],82.4%
same,"viability, T/C",[14],114%
same,"viability, T/C",[15],109%
same,"viability, T/C",[16],70%
same,"viability, T/C",[3],103%
same,"viability, T/C",[4],106%
same,"viability, T/C",[17],102%
same,"viability, T/C",[18],96.9%
same,"viability, T/C",[19],92.5%
same,"viability, T/C",[20],81.1%
same,"viability, T/C",[5],118%
same,"viability, T/C",[6],120%
same,"viability, T/C",[21],116%
same,"viability, T/C",[22],90.6%
same,"viability, T/C",[23],110%
same,"viability, T/C",[24],83.6%
same,"viability, T/C",[7],113%
same,"viability, T/C",[8],106%
same,"viability, T/C",[25],121%
same,"viability, T/C",[26],113%
same,"viability, T/C",[27],118%
same,"viability, T/C",[28],83.9%
same,"viability, T/C",[9],91.2%
same,"viability, T/C",[10],113%
same,"viability, T/C",[29],103%
same,"viability, T/C",[30],102%
same,"viability, T/C",[31],111%
same,"viability, T/C",[32],101%
same,"viability, T/C",[11],103%
same,"viability, T/C",[12],93.2%
same,"viability, T/C",[33],111%
same,"viability, T/C",[34],92.8%
same,"viability, T/C",[35],103%
same,"viability, T/C",[36],88.2%
CC1COCCN1c1cc(-c2ccnn2C)c2ccnc(-c3ccn[nH]3)c2n1 (stereo unspecified) + Cc1cccc(N(C)C(=O)C2C(O)CCN2c2nc(C)cc(C(F)(F)F)c2C#N)c1,IC50,second compound 0.0316 µM,0.215 µM
same,IC50,second compound 0.1 µM,0.144 µM
same,IC50,second compound 0.316 µM,0.162 µM
same,IC50,second compound 1 µM,0.264 µM
same,IC50,second compound 3.16 µM,0.242 µM
same,IC50,second compound 10 µM,0.154 µM
same,"viability, T/C",[1],84.3%
same,"viability, T/C",[2],52.8%
same,"viability, T/C",[13],50.3%
same,"viability, T/C",[14],37.8%
same,"viability, T/C",[15],31.6%
same,"viability, T/C",[16],25.9%
same,"viability, T/C",[3],67.9%
same,"viability, T/C",[4],55%
same,"viability, T/C",[17],40.4%
same,"viability, T/C",[18],34.7%
same,"viability, T/C",[19],32.2%
same,"viability, T/C",[20],25.8%
same,"viability, T/C",[5],79.9%
same,"viability, T/C",[6],54%
same,"viability, T/C",[21],43.4%
same,"viability, T/C",[22],33.9%
same,"viability, T/C",[23],29.4%
same,"viability, T/C",[24],25.8%
same,"viability, T/C",[7],74.3%
same,"viability, T/C",[8],59.2%
same,"viability, T/C",[25],45.9%
same,"viability, T/C",[26],41.7%
same,"viability, T/C",[27],32.3%
same,"viability, T/C",[28],26.9%
same,"viability, T/C",[9],76.3%
same,"viability, T/C",[10],56.4%
same,"viability, T/C",[29],42.5%
same,"viability, T/C",[30],48.9%
same,"viability, T/C",[31],32.2%
same,"viability, T/C",[32],27.9%
same,"viability, T/C",[11],57.4%
same,"viability, T/C",[12],56.5%
same,"viability, T/C",[33],40.8%
same,"viability, T/C",[34],34.7%
same,"viability, T/C",[35],30.6%
same,"viability, T/C",[36],26.9%
